Experiments:
Cannabinoid receptor 1 = Cannabinoid receptor 1 (Homo sapiens, UniProt P21554); assay: Binding affinity to human CB1 receptor
Homo sapiens = organism: Homo sapiens; assay: Selectivity for human CB2 receptor over human CB1 receptor
Cannabinoid receptor 2 [1] = target: T1, Cannabinoid receptor 2 (Homo sapiens, UniProt P34972); assay: Agonist activity at human CB2 receptor by GTPgamma[35S] assay; assay type: functional
Cannabinoid receptor 2 [2] = target: T1, Cannabinoid receptor 2; assay: Agonist activity at human CB2 receptor by GTPgamma[35S] assay relative to WIN-55212-2; assay type: functional
Cannabinoid receptor 2 [3] = target: T1, Cannabinoid receptor 2; assay: Binding affinity to human CB2 receptor

Cannabinoid receptor 1, sequence (P21554 whole entry): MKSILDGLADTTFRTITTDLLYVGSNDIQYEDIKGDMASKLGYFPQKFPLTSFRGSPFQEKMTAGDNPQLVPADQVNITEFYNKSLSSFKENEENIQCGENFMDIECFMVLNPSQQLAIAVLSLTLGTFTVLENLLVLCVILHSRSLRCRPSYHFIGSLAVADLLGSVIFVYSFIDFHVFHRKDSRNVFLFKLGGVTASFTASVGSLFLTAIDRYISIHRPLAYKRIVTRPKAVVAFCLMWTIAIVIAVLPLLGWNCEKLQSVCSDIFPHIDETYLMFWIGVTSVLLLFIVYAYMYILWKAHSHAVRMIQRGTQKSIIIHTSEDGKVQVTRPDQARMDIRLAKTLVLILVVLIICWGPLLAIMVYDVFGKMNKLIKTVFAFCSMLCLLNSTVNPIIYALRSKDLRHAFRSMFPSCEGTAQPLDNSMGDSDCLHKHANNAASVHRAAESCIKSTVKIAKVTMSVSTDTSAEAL
T1 sequence (P34972 whole entry): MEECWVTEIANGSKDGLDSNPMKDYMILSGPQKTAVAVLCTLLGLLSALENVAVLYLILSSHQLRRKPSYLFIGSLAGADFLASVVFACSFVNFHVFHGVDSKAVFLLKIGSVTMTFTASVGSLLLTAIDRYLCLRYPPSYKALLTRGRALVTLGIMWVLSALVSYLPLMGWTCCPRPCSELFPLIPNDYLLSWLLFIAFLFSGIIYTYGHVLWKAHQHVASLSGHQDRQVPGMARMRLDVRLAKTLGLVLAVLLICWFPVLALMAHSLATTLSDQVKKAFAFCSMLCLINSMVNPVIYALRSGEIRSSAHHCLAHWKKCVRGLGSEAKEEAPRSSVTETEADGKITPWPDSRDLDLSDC

SMILES	Ki (Cannabinoid receptor 1)	Ratio Ki (Homo sapiens)	EC50 (Cannabinoid receptor 2 [1])	Emax (Cannabinoid receptor 2 [2])	Ki (Cannabinoid receptor 2 [3])
CCS(=O)(=O)n1c2c(c3cc(C(=O)N4CCC(C)CC4)ccc31)CN(C1CCCCO1)C2 (stereo not drawn)	6180 nM	351	1.7 nM	107%	17.6 nM
CCS(=O)(=O)n1c2c(c3cc(C(=O)N4CCOCC4)ccc31)CN(C1CCCC1)C2	> 8000 nM	> 25			308 nM
CCCCN(C)C(=O)c1ccc2c(c1)c1c(n2S(=O)(=O)CC)CN(C2CCCC2)C1	779 nM	34.9	4 nM	111%	22.3 nM
CC1CCN(C(=O)c2ccc3c(c2)c2c(n3S(=O)(=O)C(C)C)CN(C3CCCC3)C2)CC1	150 nM	35.7	0.5 nM	105%	4.2 nM
CCS(=O)(=O)n1c2c(c3cc(C(=O)N4CCCCC4)ccc31)CN(C1CCCC1)C2	818 nM	46.7	1.7 nM	107%	17.5 nM
CCS(=O)(=O)n1c2c(c3cc(C(=O)N4CCC(C)CC4)ccc31)CN(C1CCOCC1)C2	3020 nM	14			216 nM
CCS(=O)(=O)n1c2c(c3cc(C(=O)N4CCC(C)CC4)ccc31)CN(CC1CCCCC1)C2	339 nM	0.4			935 nM
CCS(=O)(=O)n1c2c(c3cc(C(=O)N4CCC(C)CC4)ccc31)CN(CC1CC1)C2			0.5 nM		6.3 nM
CCS(=O)(=O)n1c2c(c3cc(C(=O)N4CCC(C)CC4)ccc31)CN(C1CCCC1)C2	66.3 nM	9.4	0.8 nM	110%	7 nM
CCS(=O)(=O)n1c2c(c3cc(C(=O)N4CCC(C)CC4)ccc31)CN(C(C)C)C2	418 nM	47	0.9 nM	101%	8.9 nM
CCS(=O)(=O)n1c2c(c3cc(C(=O)N4CCC(F)CC4)ccc31)CN(C1CCCC1)C2	2910 nM	65.9			44.2 nM
CCS(=O)(=O)n1c2c(c3cc(C(=O)N4CCC(C)CC4)ccc31)CN(CCC1CCCCC1)C2	2740 nM	1.4			1980 nM
CCCCN1Cc2c(n(S(=O)(=O)CC)c3ccc(C(=O)N4CCC(C)CC4)cc23)C1	341 nM	20.3	2.7 nM	105%	16.8 nM
CCS(=O)(=O)n1c2c(c3cc(C(=O)N(C)CCC(C)C)ccc31)CN(C1CCCC1)C2	1470 nM	38.7			38.1 nM
CC1CCN(C(=O)c2ccc3c(c2)c2c(n3Cc3ccccc3)CN(C3CCCC3)C2)CC1	658 nM	6.2			106 nM
CCCCCc1cc(O)c2c(c1)CC(C)(C)[C@@H]1CCC(C)=C[C@@H]21	20.1 nM	0.14	13.5 nM	64%	140 nM
CC(=O)n1c2c(c3cc(C(=O)N4CCC(C)CC4)ccc31)CN(C1CCCC1)C2	2330 nM	26.5			88.1 nM
CC1CCN(C(=O)c2ccc3[nH]c4c(c3c2)CN(C2CCCC2)C4)CC1	> 8000 nM				4720 nM
CCS(=O)(=O)n1c2c(c3cc(C(=O)N4CCC(C)CC4)ccc31)CN(C1CCOC1)C2 (stereo not drawn)	973 nM	35			27.8 nM
CCS(=O)(=O)n1c2c(c3cc(C(=O)N4CCC(OC)CC4)ccc31)CN(C1CCCC1)C2	2130 nM	77.2			27.6 nM
CC1CCN(C(=O)c2ccc3c(c2)c2c(n3S(=O)(=O)c3ccccc3)CN(C3CCCC3)C2)CC1	259 nM	14.5	15.6 nM	-62%	17.9 nM
CCS(=O)(=O)n1c2c(c3cc(C(=O)N(C)C(C)C)ccc31)CN(C1CCCC1)C2	7220 nM	67.5			107 nM
C=CCN1Cc2c(n(S(=O)(=O)CC)c3ccc(C(=O)N4CCC(C)CC4)cc23)C1	263 nM	41.1	0.3 nM	104%	6.4 nM
CCS(=O)(=O)n1c2c(c3cc(C(=O)N4CCC(C)CC4)ccc31)CN(Cc1ccccc1)C2	1270 nM	34.4			37 nM
CC1CCN(C(=O)c2ccc3c(c2)c2c(n3C)CN(C3CCCC3)C2)CC1	1810 nM	21.4			84.7 nM
CCCN1Cc2c(n(S(=O)(=O)CC)c3ccc(C(=O)N4CCC(C)CC4)cc23)C1	604 nM	54.4	0.8 nM	104%	11.1 nM
CC1CCN(C(=O)c2ccc3c(c2)c2c(n3S(=O)(=O)C3CC3)CN(C3CCCC3)C2)CC1	137 nM	14.6	1.5 nM	101%	9.4 nM
CC1CCN(C(=O)c2ccc3c(c2)c2c(n3S(C)(=O)=O)CN(C3CCCC3)C2)CC1	279 nM	35.3	0.6 nM	105%	7.9 nM
C=CCn1c2c(c3cc(C(=O)N4CCC(C)CC4)ccc31)CN(C1CCCC1)C2	695 nM	29.8	5 nM	92%	23.3 nM
CCCS(=O)(=O)n1c2c(c3cc(C(=O)N4CCC(C)CC4)ccc31)CN(C1CCCC1)C2	195 nM	8.7	6.7 nM	90%	22.3 nM
